Measured values: article PMC6161059 (ACS Central Science, 2018)

Key:
[1] = target: β2AR(1.19H4) (Homo sapiens, UniProt P07550, INS20HHHH); assay: Fluorescence Ca2+ imaging; format: cell-based; details: 1 µM MAC(β2AR, O4), 5 µM U73122
[2] = target: T1, M1R(1.18H4) (Homo sapiens, UniProt P11229); format: cell-based; details: CHO cells, 1 μM Ni–NTA
T1 sequence (P11229 1-460): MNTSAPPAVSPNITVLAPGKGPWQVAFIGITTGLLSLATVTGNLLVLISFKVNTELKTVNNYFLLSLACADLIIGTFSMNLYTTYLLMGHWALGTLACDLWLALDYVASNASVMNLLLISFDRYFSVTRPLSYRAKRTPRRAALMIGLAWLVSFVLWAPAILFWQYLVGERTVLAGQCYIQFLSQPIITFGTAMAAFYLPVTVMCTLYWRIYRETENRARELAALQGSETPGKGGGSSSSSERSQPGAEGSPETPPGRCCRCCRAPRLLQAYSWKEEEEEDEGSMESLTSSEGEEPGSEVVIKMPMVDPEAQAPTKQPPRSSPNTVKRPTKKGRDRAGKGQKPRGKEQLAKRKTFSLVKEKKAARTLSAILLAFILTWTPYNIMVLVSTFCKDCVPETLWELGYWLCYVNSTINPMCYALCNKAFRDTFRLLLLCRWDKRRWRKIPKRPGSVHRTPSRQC

| MAC(β2AR, O4)-induced Ca2+ response in presence of PLC inhibitor [1] | SMILES | concentration–response on addition of Ni–NTA [2] |
| --- | --- | --- |
| no response was detected | COc1ccc2c(c1)CC[C@@H]1[C@@H]2CC[C@]2(C)[C@@H](NCCCCCCN3C(=O)C=CC3=O)CC[C@@H]12 [U73122] | – |
| – | C[N+](C)(C)CC#CCOC1=NOCC1 [iperoxo] | unaffected |
